According to patent US20200165194A1, “ADDITIVE COMPOSITION FOR CULTURE MEDIUM, ADDITIVE COMPOUND FOR CULTURE MEDIUM, AND METHOD FOR CULTURE OF CELLS OR TISSUE USING SAME” (NISSAN CHEMICAL CORPORATION, priority 2017, published 2020):

Experiments:
[1] = system: Human umbilical vein endothelial cells; assay: Vascular endothelial cell, 3D culture, ATP assay (Experimental Example 14); type: cell-based
Procedure: Human umbilical vein endothelial cells (manufactured by PromoCell) were precultured in Endothelial Cell proliferation Medium (manufactured by PromoCell) medium (single layer culture). The above-mentioned cells in the logarithmic growth phase were washed with PBS, DetachKit (manufactured by PromoCell) was added, and adherent cells were detached by incubating at 37° C. for 3 min. The medium was added and the mixture was centrifuged and resuspended in the same medium.
The aforementioned cells were suspended in respective deacylated gellan gum-containing or not containing media (deacylated gellan gum concentration was 0.015 w/v %), and seeded in a 96 well low attachment U-bottom plate (manufactured by Corning, #4520, deacylated gellan gum-free medium), or a low attachment flat bottom plate (manufactured by Corning, #3474, deacylated gellan gum-containing medium) at a cell concentration of 700-2000 cells/90 μL/well (all 3D culture). […] The amount of each compound solution to be added was 10 μL/well. As a control, a DMSO solution dissolved in a medium was added (DMSO final concentration 0.1%).

[2] = system: SKOV3 cells (human ovarian cancer-derived cell line); assay: Cell proliferation activity in three-dimensional medium FCeM, ATP assay (Experimental Example 1); type: cell-based; details: SKOV3, 3D medium FCeM, 4 days, DMSO control = 100%, average of two tests; for proliferation rate (%): compound 5 μM
Procedure: A cell proliferation promoting effect when the compound to be used in the present invention was added to a three-dimensional medium was studied. Specifically, precultured (adhesion cultured) SKOV3 cells (human ovarian cancer-derived cell line) were recovered and suspended in a three-dimensional cell culture medium (“FCeM (registered trade mark)” (Nissan chemical corporation)) to prepare a cell suspension. […] The cell suspension seeded in the plate was stood overnight at 37° C., 5% CO2. Then, a DMSO diluted solution (4.44 μL) of the compound to be used in the present invention was added at a final concentration of 5 μM (or two steps of […] and 10 μM) (no stirring after addition). After addition of each compound, the mixtures were stood for 4 days at 37° C., 5% CO2. […] The luminescence intensity (RLU value) was measured by FlexStation3 (manufactured by Molecular Devices), and cell proliferation was evaluated.
The proliferation rate was calculated based on the control (cells added with DMSO without containing the compound to be used in the present invention) as the standard (100%). The values shown in the tables are average values of the results of two tests.

plural animal cell lines = assay: Animal cell lines, summary over the cell lines (Experimental Example 15); type: cell-based; details: animal cell lines under three-dimensional conditions
Excerpt: (§1) Various animal cell lines were precultured (single layer culture) as follows in respective media. Chinese hamster ovary-derived cell line CHO-K1 (manufactured by DS PHARMA BIO MEDICAL, 10% fetal bovine serum (FBS, manufactured by Corning)-containing Ham's F-12 medium (manufactured by Fujifilm Wako Pure Chemical Corporation)), Cercopithecus aethiops kidney epithelium-derived cell line Vero (purchased from JCRB cell bank, 5% FBS-containing Medium 199 medium (manufactured by Life Technologies)). The above-mentioned cells in the logarithmic growth phase were washed with PBS, a 0.25 w/v % trypsin-1 mmol/L EDTA (ethylenediaminetetraacetic acid) solution (manufactured by Fujifilm Wako Pure Chemical Corporation) was added, and adherent cells were detached by incubating at 37° C. for 3 min. Each medium was added and the mixture was centrifuged and resuspended in the same medium.
(§2) The aforementioned various animal cells were suspended in respective deacylated gellan gum-containing or not containing media (deacylated gellan gum concentration was 0.02 w/v % in Ham's F-12 medium, 0.015 w/v % in Medium 199 medium), and seeded in a 96 well low attachment U-bottom plate (manufactured by Corning, #4520, deacylated gellan gum-free medium), or a low attachment flat bottom plate (manufactured by Corning, #3474, deacylated gellan gum-containing medium) at a cell concentration of 700-2000 cells/90 μL/well (all 3D culture). […] The amount of each compound solution to be added was […]. As a control, a DMSO solution dissolved in a medium was added (DMSO final concentration 0.1%). […] When compared with the compound non-addition (control), one showing a value of not more than 119% as -, one showing a value of not less than 120% as ◯, and one showing a value of not less than 150% as ⊚ are shown in the twenty-third table and the twenty-fourth table.

[3] = system: human epithelial-like cell cancer-derived cell line A431; assay: Cells cultured by hanging drop method, ATP assay (Experimental Example 12); type: cell-based
Procedure: (§3) Human epithelial-like cell cancer-derived cell line A431 (manufactured by ATCC) was cultured using 10% FBS and 1% MEM non-essential amino acid solution (MEM NEAA, manufactured by Wako Pure Chemical Industries, Ltd.)-containing EMEM (manufactured by Wako Pure Chemical Industries, Ltd.)). In addition, bone marrow-derived human mesenchymal stem cells (BM-hMSC, manufactured by PromoCell) were cultured using a mesenchymal stem cell proliferation medium (manufactured by PromoCell). Each of the above-mentioned cells in the logarithmic growth phase was washed with PBS, a 0.25 w/v % trypsin-1 mmol/L EDTA (ethylenediaminetetraacetic acid) solution (manufactured by Wako Pure Chemical Industries, Ltd.) was added, and the cells were detached by incubating at 37° C. for 3 min. Each medium was added, the mixture was centrifuged, and the supernatant was removed.
(§4) The cell suspension was seeded by 10 μL in 15 drops on the back surface of the lid of a 3.5 cm dish (manufactured by Falcon, #351008) to form droplets. At this time, as a control, a medium supplemented with DMSO (final concentration of DMSO: 0.05%) was seeded by 10 μL in 15 drops. The lid was returned to a 3.5 cm dish added with 2 mL of PBS, and cultured for 2 days in an incubator at 37° C., 5% CO2. The cultured droplets were collected in a 1.5 mL tube, and the medium was added to a final volume of 150 μL.

[4] = system: Bone marrow-derived human mesenchymal stem cells (BM-hMSC); assay: as above; type: cell-based
Procedure: as §3, §4

[5] = system: Chinese hamster ovary-derived cell line CHO-K1; assay: Animal cell lines, 3D culture, ATP assay (Experimental Example 15); type: cell-based; details: CHO-K1; low attachment flat bottom plate (deacylated gellan gum-containing medium); 5 μM; 4 days
Excerpt: as §1, §2

[6] = system: Cercopithecus aethiops kidney epithelium-derived cell line Vero; assay: as above; type: cell-based; details: 4 days
Excerpt: as §1, §2

hiPS cell line 253G1 = assay: Human pluripotent stem cell (hiPS cell), EZSPHERE plate, ATP assay (Experimental Example 13); type: cell-based; details: for relative value (%): hiPS 253G1, EZSPHERE plate, 5 μM, 3 days, RLU of DMSO addition = 100%; for proliferation activity (in words): human pluripotent stem cells under three-dimensional conditions
Procedure: hiPS cell line 253G1 (purchased from RIKEN) was cultured on a dish coated with vitronectin VTN-N (manufactured by Thermo Fisher Scientific) using mTeSR1 (registered trade mark) medium (manufactured by STEMCELL Technologies). The above-mentioned cells in the proliferation phase were washed with PBS (manufactured by Fujifilm Corporation Wako Pure Chemical Industries, Ltd.), TrypLE Select (registered trade mark) (manufactured by Thermo Fisher Scientific) was added and the mixture was incubated at 37° C. for 3 min to remove the detaching solution. The medium was added and the cells were detached by pipetting. Thereafter, the supernatant was removed by centrifugation.
The aforementioned cells were suspended in a medium containing 10 μM Y-27632 (manufactured by Fujifilm Corporation Wako Pure Chemical Industries, Ltd.) and seeded in a 96-well EZSPHERE plate (manufactured by AGC TECHNO GLASS CO., LTD., #4860-900) at a cell concentration of 10000 cells/200 μL/well. […] The amount of each compound solution to be added was 2 μL/well. As a control, a DMSO solution dissolved in a medium was added (DMSO final concentration 0.05%). The medium was exchanged by half the volume every day, and each compound solution was also added to make the compound concentration constant.

[7] = system: human ovarian cancer cell line SKOV3; assay: Action on SKOV3 cell-2: 3D (deacylated gellan gum) and 2D culture, EGF medium, ATP assay (Experimental Example 3); details: for relative value of RLU (number of viable cells): 4 days, compound non-addition = 100%
Procedure: According to the method of patent document 1 (WO 2014/017513), a composition of McCoy's 5a medium (manufactured by Sigma-Aldrich) containing 0.015% (w/v) deacylated gellan gum (KELCOGEL CG-LA, manufactured by Sansho Co., Ltd.) and 15% (v/v) FBS, 30 ng/mL human EGF (manufactured by PEPROTECH) was prepared using FCeM-series Preparation Kit (manufactured by Wako Pure Chemical Industries, Ltd.). In a single layer culture, a non-addition medium composition not containing deacylated gellan gum was prepared. Then, human ovarian cancer cell line SKOV3 (manufactured by DS PHARMA BIO MEDICAL) was suspended in the above-mentioned medium composition added with deacylated gellan gum, and dispensed into the wells of a 384 well flat bottom Ultr-low Attachment surface microplate (manufactured by Corning Incorporated, #3827) at 1000 cells/36 μL/well (three-dimensional culture (3D)). In a single layer culture (2D), human ovarian cancer cell line SKOV3 was suspended in the above-mentioned medium composition not containing deacylated gellan gum, and dispensed into the wells of a 384 well flat bottom microplate (manufactured by Corning Incorporated, #3712) at 400 cells/36 μL per well. After dispensing, the compound to be used in the present invention dissolved in dimethyl sulfoxide (DMSO) was added by 4 μL each at a final concentration of 0, 1, 5, 10, 20 μM, and continuously cultured for 4 days. Each plate was cultured in a standing state in a CO2 incubator (37° C., 5% CO2) for 4 days. An ATP reagent (40 μL) (CellTiter-Glo (registered trade mark) Luminescent Cell Viability Assay, manufactured by Promega) was added to the culture medium on day 4, and the mixture was stirred by a plateshaker (manufactured by AS ONE Corporation, Micro plate mixer NS-P) at room temperature for 15 min. The luminescence intensity (RLU value) was measured by EnSpire (manufactured by Perkin Elmer) and the luminescence value of the medium alone was subtracted to measure the number of viable cells.

CCC(=NNC(=O)CNc1ccccc1)c1ccc(O)c(C)c1O [k-1:H-1]
relative value of RLU (number of viable cells) ([1]; HUVEC, low attachment U-bottom plate, 5 μM, 4 days, no-addition = 100%): 820%
proliferation activity (in words) ([1]; human umbilical vein endothelial cells under three-dimensional conditions): promoted proliferation activity in human umbilical vein endothelial cells
proliferation rate (%) [2]: 233.26%
proliferation activity (in words) (plural animal cell lines): promoted proliferation activity in plural animal cell lines
cell number (in words) ([3]; A431 cell line, three-dimensional cell culture by the hanging drop method): showed an effect of increasing the number
cell number (relative value) ([3]; A431 cell, hanging drop, 5 μM, 2 days, control = 100%): 252%
cell number (relative value) ([4]; BM-hMSC, hanging drop, 5 μM, 2 days, control = 100%): 186%
cell number (in words) ([4]; bone marrow-derived human mesenchymal stem cells, hanging drop method): showed an effect of increasing the number
number of viable cells (RLU), relative value to control (100%) [5]: ◯ (one showing a value of not less than 120% as ◯)
number of viable cells (RLU), relative value to control (100%) ([6]; low attachment U-bottom plate, 5 μM): ⊙
number of viable cells (RLU), relative value to control (100%) ([6]; low attachment U-bottom plate, 10 μM): ⊙
number of viable cells (RLU), relative value to control (100%) ([6]; low attachment flat bottom plate (deacylated gellan gum-containing medium), 5 μM): ⊙
number of viable cells (RLU), relative value to control (100%) ([6]; low attachment flat bottom plate (deacylated gellan gum-containing medium), 10 μM): ⊙
relative value (%) (hiPS cell line 253G1): 166%
proliferation activity (in words) (hiPS cell line 253G1): promoted proliferation activity in human pluripotent stem cells

CCC(=NNC(=O)NC(C)c1cccc(O)c1)c1ccc(O)c(C)c1O (centres unmarked) [k-1:I-10]
relative value of RLU (number of viable cells) ([7]; 2D single layer culture, 1 μM): 99%
relative value of RLU (number of viable cells) ([7]; 2D single layer culture, 5 μM): 98%
relative value of RLU (number of viable cells) ([7]; 2D single layer culture, 10 μM): 99%
relative value of RLU (number of viable cells) ([7]; 2D single layer culture, 20 μM): 100%
relative value of RLU (number of viable cells) ([7]; 3D culture (deacylated gellan gum), 1 μM): 100%
relative value of RLU (number of viable cells) ([7]; 3D culture (deacylated gellan gum), 5 μM): 135%
relative value of RLU (number of viable cells) ([7]; 3D culture (deacylated gellan gum), 10 μM): 181%
relative value of RLU (number of viable cells) ([7]; 3D culture (deacylated gellan gum), 20 μM): 197%
cell proliferation promoting effect (in words) ([7]; single layer culture (2D) of SKOV3 cells): a favorable cell proliferation promoting effect was not observed
cell proliferation promoting effect (in words) ([7]; three-dimensional culture (3D) of SKOV3 cells): exhibited cell proliferation promoting effect at a wide concentration range
relative value (%) (hiPS cell line 253G1): 194%
proliferation activity (in words) (hiPS cell line 253G1): promoted proliferation activity in human pluripotent stem cells

CCC(=NNC(=O)CNc1ccccc1C)c1ccc(O)c(C)c1O [k-1:H-2]
proliferation rate (%) [2]: 147.27%

CC(=NNC(=O)CNc1ccc(F)cc1)c1ccc(O)c(C)c1O [k-2:H-5]
proliferation rate (%) [2]: 158.56%

Cc1c(O)ccc(C(CC(C)C)=NNC(=O)CNc2cccc3ccccc23)c1O [k-5:H-6]
proliferation rate (%) [2]: 115.2%

CCOc1ccc(NCC(=O)NN=C(CC(C)C)c2ccc(O)c(C)c2O)cc1 [k-5:H-9]
proliferation rate (%) [2]: 38.38%

CCC(=NNC(=O)CNc1ccc(F)cc1)c1c(O)cc(O)c(C)c1O [k-3:H-5]
proliferation rate (%) [2]: 141.82%

CCCCCCCC/N=C(\CC)c1ccc(O)c(C)c1O [k-1:A-3]
proliferation rate (%) (5 μM) ([2]; 5 μM): 118.1%
proliferation rate (%) (10 μM) ([2]; 10 μM): 112.6%

CCC(=NNC(=O)CNc1ccccc1)c1c(O)cc(O)c(C)c1O [k-3:H-1]
proliferation rate (%) [2]: 133.76%

CCC(=NNC(=O)C(CC)Nc1ccccc1)c1c(O)cc(O)c(C)c1O (centres unmarked) [k-3:H-7]
proliferation rate (%) [2]: 126.34%

Cc1cccc(NCC(=O)NN=C(CC(C)C)c2ccc(O)c(C)c2O)c1 [k-5:H-3]
proliferation rate (%) [2]: 146.44%

CCC(Nc1ccccc1)C(=O)NN=C(CC(C)C)c1ccc(O)c(C)c1O (centres unmarked) [k-5:H-7]
proliferation rate (%) [2]: 130.63%
